# Legend:
# human ARL-2 protein = biological target: T1, human ARL-2 protein (Homo sapiens, UniProt C9JRZ8); experiment: Standard ARL-2 enzyme assay (NADPH A340 decrease); assay type: biochemical; conditions: sodium-phosphate buffer pH 6.3, 0.2 mmol NADPH, 28° C.
# T1 construct: For the expression of the ARL-2 protein, the coding area was amplified by means of the polymerase chain reaction; His-tag; made in house; host or cells: E. coli (pQE30) or insect cells (baculovirus pBlueBac4.5/V5-His-TOPO)
# T1 sequence (C9JRZ8 whole entry): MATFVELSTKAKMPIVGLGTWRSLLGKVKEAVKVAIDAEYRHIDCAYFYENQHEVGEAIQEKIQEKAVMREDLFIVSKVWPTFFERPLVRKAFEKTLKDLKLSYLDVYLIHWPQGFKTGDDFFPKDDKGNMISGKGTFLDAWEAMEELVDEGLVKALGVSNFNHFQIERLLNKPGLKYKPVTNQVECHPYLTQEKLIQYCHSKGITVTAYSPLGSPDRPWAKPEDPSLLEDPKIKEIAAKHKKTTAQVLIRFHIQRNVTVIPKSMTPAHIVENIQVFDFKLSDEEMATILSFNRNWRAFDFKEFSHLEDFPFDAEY
# Description: For the expression of the ARL-2 protein, the coding area was amplified by means of the polymerase chain reaction (for reaction conditions, see Example 2) (primer for the N-terminal area: 5′ ATGGCCACGTTTGTGGAGCTC 3′; primer for the C-terminal area: 5′ ATATTCTGCATCGAAGGGAAA 3′), and inserted in the baculovirus expression vector pBlueBac4.5/V5-His-TOPO (Invitrogen) or the eukaryotic expression vector pcDNA3.1/V5/His-TOPO (Invitrogen). For the expression of the ARL-2 protein in E. coli, the coding area was amplified by means of a polymerase chain reaction (for reaction conditions, see Example 2) (primer for the N-terminal area: 5′ CGGGATCCGCCACGTTTGTGGAGCTC 3′; primer for the C-terminal area: 5′ CCCAAGCTTTCAATATTCTGCATCGAAGGGAAA 3′) and inserted in the procaryotic expression vector pQE30 (Quiagen). To simplify detection and purification, a fusion with an His-tag was carried out. […]
# A standard ARL-2 enzyme assay was performed as follows: The standard enzyme reaction batch contained 135 mmol of sodium-phosphate buffer (pH 6.3), 0.2 mmol of NADPH and measured substrate and enzyme concentrations. The enzyme reaction was carried out at 28° C., and the substrate conversion was determined by spectrometry via the reduction of A340 of the NADPH. […] Controls without substrate and without enzyme were measured with respect to the standard. […]
# neuronal cell cultures = conditions: Kruman et al., 1997; Malecki et al., 2000; cited from earlier work
# [1] = system: endothelial cell cultures; conditions: Herbst et al., 1997; cited from earlier work
# [2] = system: adrenocorticotrophic carcinoma cell line Y1; experiment: Test system for apoptosis-inducing substances, annexin-V staining in Y1 cells; assay type: cell-based, mouse; conditions: concentration of 10 μM; 12 hours incubation
# Protocol: In this test system, substances can be examined with respect to their apoptosis-inducing action. The adrenocorticotrophic carcinoma cell line Y1 was used as a cell system. Cell cultures of this mouse cell line were treated for 12 hours with different substances before the rate of apoptosis in the cells was determined. […] Y1 cells/ml were resuspended in DME/F12 (+10% FCS) and treated with the substances to be tested. After 12 hours of incubation time, the apoptosis rate was determined in the Y1 cells using annexin-V-alexa 468 staining (Roche) in combination with DNA staining (Hoechst-33258, Molecular Probes) according to manufacturer's information.
Structure (SMILES),substrate of the aldo-keto-reductase ARL-2 (human ARL-2 protein),induction of apoptosis in neuronal cell cultures (neuronal cell cultures),induction of apoptosis in endothelial cell cultures [1],induction of apoptosis in the Y1 cell line [2]
CC(C)CCC=O [isocaproaldehyde],preferred substrates,–,–,–
CCCCCC(O)/C=C/C=O (centres unmarked) [4-hydroxynonenal],preferred substrates,induces apoptosis,induces apoptosis,can induce apoptosis

# From US20030148337A1, “ARL-2 for birth control” (Schering AG, priority 2001, published 2003)
